Test results from PubChem BioAssay (NCI).
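Tested at 5 concentrations; 48 h exposure; 96-well plates; endpoints linearly interpolated, else capped at highest concentration. TGI is the concentration that stops growth completely.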

Assays:
Assay in all cases: growth of human tumour cells (NCI), 48 h
786-0 renal = system: 786-0 renal
A498 renal = system: A498 renal
A549 NSCLC = system: A549 NSCLC
ACHN renal = system: ACHN renal
BT-549 breast = system: BT-549 breast
CAKI-1 renal = system: CAKI-1 renal
CCRF-CEM leukemia = system: CCRF-CEM leukemia
COLO 205 colon = system: COLO 205 colon
DU-145 prostate = system: DU-145 prostate
EKVX NSCLC = system: EKVX NSCLC
HCC-2998 colon = system: HCC-2998 colon
HCT-116 colon = system: HCT-116 colon
HCT-15 colon = system: HCT-15 colon
HL-60(TB) leukemia = system: HL-60(TB) leukemia
HOP-92 NSCLC = system: HOP-92 NSCLC
HS 578T breast = system: HS 578T breast
HT29 colon = system: HT29 colon
IGROV1 ovarian = system: IGROV1 ovarian
K-562 leukemia = system: K-562 leukemia
KM12 colon = system: KM12 colon
LOX IMVI melanoma = system: LOX IMVI melanoma
M14 melanoma = system: M14 melanoma
MCF7 breast = system: MCF7 breast
MDA-MB-231 breast = system: MDA-MB-231 breast
MDA-MB-435 = system: MDA-MB-435
MDA-N = system: MDA-N
MOLT-4 leukemia = system: MOLT-4 leukemia
NCI-H226 lung = system: NCI-H226 lung
NCI-H23 lung = system: NCI-H23 lung
NCI-H460 lung = system: NCI-H460 lung
NCI-H522 lung = system: NCI-H522 lung
NCI/ADR-RES ovarian = system: NCI/ADR-RES ovarian
OVCAR-3 ovarian = system: OVCAR-3 ovarian
OVCAR-4 ovarian = system: OVCAR-4 ovarian
OVCAR-5 ovarian = system: OVCAR-5 ovarian
OVCAR-8 ovarian = system: OVCAR-8 ovarian
PC-3 prostate = system: PC-3 prostate
RPMI-8226 leukemia = system: RPMI-8226 leukemia
RXF 393 renal = system: RXF 393 renal
SF-268 CNS = system: SF-268 CNS
SF-295 CNS = system: SF-295 CNS
SK-MEL-2 melanoma = system: SK-MEL-2 melanoma
SK-MEL-28 melanoma = system: SK-MEL-28 melanoma
SK-MEL-5 melanoma = system: SK-MEL-5 melanoma
SK-OV-3 ovarian = system: SK-OV-3 ovarian
SN12C renal = system: SN12C renal
SNB-19 CNS = system: SNB-19 CNS
SNB-75 CNS = system: SNB-75 CNS
SR leukemia = system: SR leukemia
SW-620 colon = system: SW-620 colon
T-47D breast = system: T-47D breast
TK-10 renal = system: TK-10 renal
U251 CNS = system: U251 CNS
UACC-257 melanoma = system: UACC-257 melanoma
UACC-62 melanoma = system: UACC-62 melanoma
HOP-62 NSCLC = system: HOP-62 NSCLC
MALME-3M melanoma = system: MALME-3M melanoma
SF-539 CNS = system: SF-539 CNS
UO-31 renal = system: UO-31 renal

For `CC(=O)Nc1ccc2[nH]c(C(=O)N3CC(CCl)c4c3cc([N+](=O)[O-])c3ccccc43)cc2c1` (stereo unspecified), the TGI (786-0 renal) was > 100 µM, the TGI (A498 renal) was 4.06 µM and the TGI (A549 NSCLC) was 1.15 µM. The TGI (ACHN renal) was > 100 µM, the TGI (BT-549 breast) was > 100 µM and the TGI (CAKI-1 renal) was > 29.9 µM. For the same compound, the TGI (CCRF-CEM leukemia) was 29 µM, the TGI (COLO 205 colon) was > 100 µM and the TGI (DU-145 prostate) was > 100 µM. For the same compound, the TGI (EKVX NSCLC) was > 89.4 µM, the TGI (HCC-2998 colon) was > 100 µM and the TGI (HCT-116 colon) was > 100 µM. The TGI (HCT-15 colon) was > 100 µM, the TGI (HL-60(TB) leukemia) was 23 µM and the TGI (HOP-92 NSCLC) was > 43.7 µM. The TGI (HS 578T breast) was > 95 µM, the TGI (HT29 colon) was > 100 µM and the TGI (IGROV1 ovarian) was > 53 µM. For the same compound, the TGI (K-562 leukemia) was > 45.8 µM, the TGI (KM12 colon) was > 71.7 µM and the TGI (LOX IMVI melanoma) was > 100 µM. The TGI (M14 melanoma) was > 100 µM, the TGI (MCF7 breast) was > 100 µM and the TGI (MDA-MB-231 breast) was > 100 µM. The TGI (MDA-MB-435) was > 100 µM, the TGI (MDA-N) was > 100 µM and the TGI (MOLT-4 leukemia) was > 67.6 µM. The TGI (NCI-H226 lung) was 58.8 µM, the TGI (NCI-H23 lung) was > 100 µM and the TGI (NCI-H460 lung) was > 100 µM. The TGI (NCI-H522 lung) was 6.61 µM, the TGI (NCI/ADR-RES ovarian) was > 100 µM and the TGI (OVCAR-3 ovarian) was > 100 µM. For the same compound, the TGI (OVCAR-4 ovarian) was > 100 µM, the TGI (OVCAR-5 ovarian) was 96.9 µM and the TGI (OVCAR-8 ovarian) was > 100 µM. For the same compound, the TGI (PC-3 prostate) was > 100 µM, the TGI (RPMI-8226 leukemia) was > 27.8 µM and the TGI (RXF 393 renal) was 32.7 µM. For the same compound, the TGI (SF-268 CNS) was > 57.1 µM, the TGI (SF-295 CNS) was > 100 µM and the TGI (SK-MEL-2 melanoma) was > 69.5 µM. For the same compound, the TGI (SK-MEL-28 melanoma) was > 100 µM, the TGI (SK-MEL-5 melanoma) was > 100 µM and the TGI (SK-OV-3 ovarian) was > 65.1 µM. The TGI (SN12C renal) was > 100 µM, the TGI (SNB-19 CNS) was > 100 µM and the TGI (SNB-75 CNS) was > 64.4 µM. The TGI (SR leukemia) was 5.83 µM, the TGI (SW-620 colon) was > 100 µM and the TGI (T-47D breast) was 9.92 µM. For the same compound, the TGI (TK-10 renal) was > 100 µM, the TGI (U251 CNS) was > 100 µM and the TGI (UACC-257 melanoma) was > 100 µM. For the same compound, the TGI (UACC-62 melanoma) was > 31.6 µM.

In the case of `Nc1nc(Cl)cc(NC2(CO)CCC2)n1`, the TGI (786-0 renal) is reported as > 100 µM, the TGI (A498 renal) is reported as > 100 µM and the TGI (A549 NSCLC) is reported as > 100 µM. For the same compound, the TGI (ACHN renal) was > 100 µM, the TGI (BT-549 breast) was > 100 µM and the TGI (CAKI-1 renal) was > 100 µM. The TGI (CCRF-CEM leukemia) was > 100 µM, the TGI (COLO 205 colon) was > 100 µM and the TGI (DU-145 prostate) was > 100 µM. For the same compound, the TGI (EKVX NSCLC) was > 100 µM, the TGI (HCC-2998 colon) was > 100 µM and the TGI (HCT-116 colon) was > 100 µM. The TGI (HCT-15 colon) was > 100 µM, the TGI (HL-60(TB) leukemia) was > 100 µM and the TGI (HOP-62 NSCLC) was > 100 µM. The TGI (HOP-92 NSCLC) was > 100 µM, the TGI (HS 578T breast) was > 100 µM and the TGI (HT29 colon) was > 100 µM. The TGI (IGROV1 ovarian) was > 100 µM, the TGI (K-562 leukemia) was > 100 µM and the TGI (KM12 colon) was > 100 µM. For the same compound, the TGI (LOX IMVI melanoma) was > 100 µM, the TGI (MALME-3M melanoma) was > 100 µM and the TGI (MCF7 breast) was > 100 µM. For the same compound, the TGI (MDA-MB-231 breast) was > 100 µM, the TGI (MDA-MB-435) was > 100 µM and the TGI (MDA-N) was > 100 µM. For the same compound, the TGI (MOLT-4 leukemia) was > 100 µM, the TGI (NCI-H226 lung) was > 100 µM and the TGI (NCI-H23 lung) was > 100 µM. For the same compound, the TGI (NCI-H460 lung) was > 100 µM, the TGI (NCI-H522 lung) was > 100 µM and the TGI (NCI/ADR-RES ovarian) was > 100 µM. For the same compound, the TGI (OVCAR-3 ovarian) was > 100 µM, the TGI (OVCAR-4 ovarian) was > 100 µM and the TGI (OVCAR-5 ovarian) was > 100 µM. For the same compound, the TGI (OVCAR-8 ovarian) was > 100 µM, the TGI (PC-3 prostate) was > 100 µM and the TGI (RPMI-8226 leukemia) was > 100 µM. For the same compound, the TGI (RXF 393 renal) was > 100 µM, the TGI (SF-268 CNS) was > 100 µM and the TGI (SF-295 CNS) was > 100 µM. For the same compound, the TGI (SF-539 CNS) was > 100 µM, the TGI (SK-MEL-2 melanoma) was > 100 µM and the TGI (SK-MEL-28 melanoma) was > 100 µM. The TGI (SK-MEL-5 melanoma) was > 100 µM, the TGI (SN12C renal) was > 100 µM and the TGI (SNB-75 CNS) was > 100 µM. For the same compound, the TGI (SR leukemia) was > 100 µM, the TGI (SW-620 colon) was > 100 µM and the TGI (T-47D breast) was > 100 µM. The TGI (TK-10 renal) was > 100 µM, the TGI (U251 CNS) was > 100 µM and the TGI (UACC-257 melanoma) was > 100 µM. The TGI (UACC-62 melanoma) was > 100 µM and the TGI (UO-31 renal) was > 100 µM.
